Measurements published in patent publication US7531195B2, “Schisandrin B preparation” (priority 2005, dated 2009).

How the values were obtained:
H9c2 cells [1] = experiment: Cytotoxicity test in H9c2 cells (trypan blue, LDH leakage, WST); format: cell-based; settings: 100 μM; 24 h
Procedure: (§1) H9c2 cells, a permanent cell line derived from cardiac myoblasts of rat embryo, have early been characterized as a suitable model of myocardial cells [Hescheler et al. 1991]. H9c2 cells were cultured as monolayers in Dulbecco's modified Eagle's medium (GIBCO BRL) supplemented with 10% (v/v) fetal bovine serum. The medium contained glucose (4.5 g/L) and glutamine (4.5 mM), supplemented with NaHCO3 (17 mM), penicillin (100 IU/ml), and streptomycin (100 μg/ml). Cells were grown under an atmosphere of 5% CO2 in air at 37° C. The medium was replaced by fresh medium every 2 or 3 days. A stock of cells was grown in a 75 cm culture flask and split before confluence at a subcultivation ratio of 1:10. Cells used for experiments were seeded at a density of 3.75×10^4 cells/well on a 12-well culture plate, and the cells were grown for 24 h to about 80% confluence prior to drug treatment.
Cultured H9c2 cells were treated with (−) Schisandrin B or (+) Schisandrin B (dissolved in DMSO) at 6.25 μM (0.2% DMSO final concentration) at increasing concentrations or at increasing concentrations for 24 h. Control cells were given the vehicle (i.e. DMSO) only.
Cell viability was evaluated by trypan blue staining (dead cells) and LDH leakage as well as WST staining (viable cells).

H9c2 cells [2] = experiment: Xanthine/xanthine oxidase-induced cytotoxicity (LDH leakage) in H9c2 cells; format: cell-based, rat; settings: X/XO challenge, 6.25 μM
Procedure: as §1
(§2) Cultured H9c2 cells were treated with (−) Schisandrin B, (+) Schisandrin B or (±) Schisandrin B (dissolved in DMSO) at 6.25 μM (0.2% DMSO final concentration) for increasing periods of time. Control cells were given the vehicle (i.e. DMSO) only. Immediately following the drug or vehicle pretreatment, the cells were challenged with a mixture of xanthine (X) (0.1 mM) and xanthine oxidase (XO) (0.4 U/ml) for 4 h. The control cells were treated with the medium only. After the X/XO challenge, the medium was taken for the measurement of LDH activity, a biochemical index of cellular injury.

Hsp70 = Hsp70 expression in H9c2 cells (Western blot); format: cell-based, rat; settings: 6.25 μM
Procedure: as §1
(§3) Cultured H9c2 cells were treated with (−) Schisandrin B, (+) Schisandrin B or (±) Schisandrin B (dissolved in DMSO) at 6.25 μM (0.2% DMSO final concentration) for increasing periods of time. Control cells were given the vehicle (i.e. DMSO) only.
(§4) Immediately following the drug treatment, the cells were washed twice with 0.5 ml cold PBS and treated with 100 μl lysis buffer containing 20 mM Tris HCl, 3 mM EGTA, 1% Triton X-100, 10% glycerol and 2 mM dithiothreitol, pH 7.5, with freshly added protease inhibitors (1 mM phenylmethylsulfonyl fluoride, 0.1 mM benzamide, 5 μg/ml leupeptin, 5 μg aproptinin and 5 μg/ml pepstain A). The mixture was incubated at 4° C. for 15 min with constant shaking. Then the cells were scraped off from the plate, and the extract was transferred to a microcentrifuge tube for centrifugation at 2,400 g for 3 min at 4° C. The resultant supernatant was used for Hsp analysis. Hsp25 and Hsp70 levels was estimated by Western blot analysis using specific antibodies (anti-Hsp25, catalog #SPA-801; anti-Hsp70, catalog #SPA-812) from StressGen (Vancouver, BC, Canada) following SDS-PAGE analysis cell lysates, using a separating gel of 10% acrylamide as described in Ip et. al. [2001]. Hsp25/27 and Hsp70 (human recombinant proteins from StressGen) and actin (bovine muscle from Sigma) were used as markers for reference. […] All immuno-blots were analyzed by densitometry, and the amounts (arbitrary units) of Hsp were normalized with reference to actin levels (arbitrary units) in the sample.

H9c2 cells [3] = experiment: Cellular GSH level in H9c2 cells with or without menadione challenge; format: cell-based, rat
Procedure: as §1
(§5) Cultured H9c2 cells were treated with (−) Schisandrin B, (+) Schisandrin B or (±) Schisandrin B (dissolved in DMSO) at 6.25 μM (0.2% DMSO final concentration) for 16 h. Control cells were given the vehicle (i.e. DMSO) only. Immediately following the drug or vehicle pretreatment, the cells were challenged with menadione (dissolved in ethanol) at 12.5 μM (0.2% ethanol final concentration) for 4 h. The control cells were treated with the medium containing 0.2% ethanol only. After the menadione challenge, the medium was taken for the measurement of LDH activity, an biochemical index of cell injury.
(§6) The cells were washed twice with 0.5 ml cold phosphate-buffered saline (PBS), An aliquot (200 μl) of 3% sulfonsalicyclic acid was then added, and the mixture was incubate at 4° C. for 10 min. After centrifuging at 300 g for 15 min at 4° C., the supernatant was used for GSH measurement by an enzymatic method of Griffith (1980).

Hsp25 = Hsp25 expression in H9c2 cells (Western blot); format: cell-based, rat; settings: 6.25 μM
Procedure: as §1, §3, §4

H9c2 cells [4] = experiment: Menadione-induced toxicity (LDH) in H9c2 cells; format: cell-based, rat
Procedure: as §1, §5

H9c2 cells [5] = experiment: Cellular GSH level in H9c2 cells, time course, with or without xanthine/xanthine oxidase (X/XO) challenge; format: cell-based, rat; settings: 6.25 μM
Procedure: as §1, §2, §6

[6] = 0 h post-dosing (unpretreated control)
[7] = MENADIONE 12.5 μM for 4 h, drug 6.25 μM for 16 h
[8] = NON-MENADIONE, 6.25 μM for 16 h
[9] = X/XO challenge, 16 h post-dosing

`COc1cc2c(c(OC)c1OC)-c1c(cc3c(c1OC)OCO3)CC(C)C(C)C2` (single isomer, unassigned; (+)) [(+) Sch B, (+) Schisandrin B] was tested, and the “percentage of cell death” value (H9c2 cells [1]) was 11%, the “LDH Leakage” value (H9c2 cells [2]; [6]) was 35.7 ± 0.24 U/L and the “LDH Leakage” value (H9c2 cells [2]; 4 h post-dosing) was 31.3 ± 0.71 U/L. For the same molecule, the “LDH Leakage” value (H9c2 cells [2]; 8 h post-dosing) was 25.2 ± 0.45 U/L, the “LDH Leakage” value (H9c2 cells [2]; 16 h post-dosing) was 19.4 ± 0.29 U/L and the “LDH Leakage, percent protection vs unpretreated control (0 h)” value (H9c2 cells [2]; 16 h post-dosing) was “(62%)”. For the same molecule, the “LDH Leakage” value (H9c2 cells [2]; 24 h post-dosing) was 22.4 ± 1.07 U/L, the “LDH Leakage” value (H9c2 cells [2]; 48 h post-dosing) was 33.5 ± 0.17 U/L and the “Hsp 70 Level” value (Hsp70; [6]) was 465 ± 14.3 AU. For the same molecule, the “Hsp 70 Level” value (Hsp70; 8 h post-dosing) was 576 ± 20.3 AU, the “Hsp 70 Level” value (Hsp70; 16 h post-dosing) was 657 ± 13.4 AU and the “Hsp 70 Level” value (Hsp70; 24 h post-dosing) was 834 ± 48.1 AU. The “Hsp 70 Level, percent increase vs unpretreated control (0 h)” value (Hsp70; 24 h post-dosing) was “(79%)”, the “Hsp 70 Level” value (Hsp70; 48 h post-dosing) was 656 ± 37.8 AU and the “GSH Level” value (H9c2 cells [3]; [7]) was 24.5 ± 2.03 nmol/mg protein. For the same molecule, the “GSH Level, percent increase vs menadione control” value (H9c2 cells [3]; [7]) was “(55%)”, the “GSH Level” value (H9c2 cells [3]; [8]) was 48.4 ± 0.60 nmol/mg protein and the “GSH Level, percent increase vs non-menadione control” value (H9c2 cells [3]; [8]) was “(41%)”. For the same molecule, the “Hsp 25 Level” value (Hsp25; [6]) was 1722 ± 99 AU, the “Hsp 25 Level” value (Hsp25; 8 h post-dosing) was 1832 ± 105 AU and the “Hsp 25 Level” value (Hsp25; 16 h post-dosing) was 1498 ± 86 AU. For the same molecule, the “Hsp 25 Level” value (Hsp25; 24 h post-dosing) was 2168 ± 125 AU, the “Hsp 25 Level, percent increase vs unpretreated control (0 h)” value (Hsp25; 24 h post-dosing) was “(26%)” and the “Hsp 25 Level” value (Hsp25; 48 h post-dosing) was 1673 ± 97 AU. For the same molecule, the LDH (H9c2 cells [4]; [7]) was 24.7 ± 0.56 U/ml, the “LDH, percent protection vs menadione control” value (H9c2 cells [4]; [7]) was “(30%)” and the LDH (H9c2 cells [4]; [8]) was 13.5 ± 0.08 U/ml. The “GSH Level” value (H9c2 cells [5]; NON-X/XO, 0 h post-dosing (unpretreated control)) was 34.2 ± 2.41 nmol/mg protein, the “GSH Level” value (H9c2 cells [5]; NON-X/XO, 4 h post-dosing) was 38.3 ± 1.48 nmol/mg protein and the “GSH Level” value (H9c2 cells [5]; NON-X/XO, 8 h post-dosing) was 46.3 ± 0.85 nmol/mg protein. For the same molecule, the “GSH Level” value (H9c2 cells [5]; NON-X/XO, 16 h post-dosing) was 73.9 ± 1.38 nmol/mg protein, the “GSH Level, percent increase vs unpretreated control (0 h)” value (H9c2 cells [5]; NON-X/XO, 16 h post-dosing) was “(117%)” and the “GSH Level” value (H9c2 cells [5]; NON-X/XO, 24 h post-dosing) was 66.7 ± 1.83 nmol/mg protein. For the same molecule, the “GSH Level” value (H9c2 cells [5]; NON-X/XO, 48 h post-dosing) was 59.0 ± 2.94 nmol/mg protein, the “GSH Level” value (H9c2 cells [5]; X/XO challenge, 0 h post-dosing (unpretreated control)) was 13.9 ± 1.68 nmol/mg protein and the “GSH Level” value (H9c2 cells [5]; X/XO challenge, 4 h post-dosing) was 15.4 ± 0.55 nmol/mg protein. For the same molecule, the “GSH Level” value (H9c2 cells [5]; X/XO challenge, 8 h post-dosing) was 16.8 ± 0.85 nmol/mg protein, the “GSH Level” value (H9c2 cells [5]; [9]) was 18.4 ± 0.33 nmol/mg protein and the “GSH Level, percent increase vs unpretreated control (0 h)” value (H9c2 cells [5]; [9]) was “(32%)”. The “GSH Level” value (H9c2 cells [5]; X/XO challenge, 24 h post-dosing) was 17.2 ± 0.36 nmol/mg protein and the “GSH Level” value (H9c2 cells [5]; X/XO challenge, 48 h post-dosing) was 14.1 ± 0.53 nmol/mg protein.
